Structures are written as SMILES.

The results in this text go back to article PMC12557437, “Research towards selective inhibition of the CLK3 kinase” (Beilstein Journal of Organic Chemistry, 2025).

Holding throughout (format): biochemical
One experiment concerns the target Mm_CLK3 (Mus musculus, UniProt O35492). The experiment can be described thus: radiometric γ33P-ATP kinase assay (Eurofins). Particulars: 15 µM ATP; dose-response, points in duplicate. The method, then: (§1) The results are reported in Table 2 and in Supporting Information File 1.
(§2) 2- Kinase inhibition studies
(§3) Kinase enzymatic activities were assayed using both luminescent ADP detection assay
(§4) (ADP-GloTM assay kit, Promega, Madison, WI) or radiometric kinase assay. These
(§5) assays were performed using the protocols described in our previous publication. […]
(§6) 1.Brahmaiah, D.; Kanaka Durga Bhavani, A.; Aparna, P.; Sampath Kumar, N.; Solhi,
(§7) H.; Le Guevel, R.; Baratte, B.; Ruchaud, S.; Bach, S.; Singh Jadav, S.; Raji Reddy, C.;
(§8) Roisnel, T.; Mosset, P.; Levoin, N.; Grée, R. Bioorg.
R.; Baratte, B.; Robert, T.; Ruchaud, S.; Bach, S.; Jadav, S. S.; Reddy, C. R.; Mosset,
P.; Gouault, N.; Levoin, N.; Grée, R. Molecules 2022, 27, 6149. […]

The next experiment deals with Rn_DYRK1A (Rattus norvegicus, UniProt Q63470). The experiment can be described thus: primary screening, short panel of mammalian kinases. As to conditions: ATP 10 µM, means, n = 2, read-out: Residual kinase activity Rn_DYRK1A; for remaining activity at 1 µM: compound 1 μM; for remaining activity at 10 µM: compound 10 μM. An excerpt:
(§9) Our molecules have been submitted first to a primary screening against a panel of eight disease-related kinases: five members of the CMGC (for CDK, MAPK, GSK3, and CLK) group (CDK5/p25, CDK9/CyclinT, GSK3β, CLK1 and DYRK1A), one CAMK (calmodulin/calcium regulated kinase PIM1), one CK1 (the casein kinase CK1ε), and haspin as a […] kinase.
(§10) Figure 4 Primary evaluation of the inhibition of the new quinazolines against a short panel of mammalian kinases. Residual kinase activities are expressed in % of maximal activity, i.e., measured in the absence of inhibitor but with an equivalent dose of DMSO (solvent of the tested compounds). ATP concentration used in the kinase assays was 10 µM (values are means, n = 2). Kinases are from human origin (Homo sapiens) except CLK1 (from Mus musculus) and DYRK1A (from Rattus norvegicus). […]

Another experiment has as its target T1, Hs_HASPIN (Homo sapiens, UniProt Q8TF76).
T1 sequence (Q8TF76 1-798): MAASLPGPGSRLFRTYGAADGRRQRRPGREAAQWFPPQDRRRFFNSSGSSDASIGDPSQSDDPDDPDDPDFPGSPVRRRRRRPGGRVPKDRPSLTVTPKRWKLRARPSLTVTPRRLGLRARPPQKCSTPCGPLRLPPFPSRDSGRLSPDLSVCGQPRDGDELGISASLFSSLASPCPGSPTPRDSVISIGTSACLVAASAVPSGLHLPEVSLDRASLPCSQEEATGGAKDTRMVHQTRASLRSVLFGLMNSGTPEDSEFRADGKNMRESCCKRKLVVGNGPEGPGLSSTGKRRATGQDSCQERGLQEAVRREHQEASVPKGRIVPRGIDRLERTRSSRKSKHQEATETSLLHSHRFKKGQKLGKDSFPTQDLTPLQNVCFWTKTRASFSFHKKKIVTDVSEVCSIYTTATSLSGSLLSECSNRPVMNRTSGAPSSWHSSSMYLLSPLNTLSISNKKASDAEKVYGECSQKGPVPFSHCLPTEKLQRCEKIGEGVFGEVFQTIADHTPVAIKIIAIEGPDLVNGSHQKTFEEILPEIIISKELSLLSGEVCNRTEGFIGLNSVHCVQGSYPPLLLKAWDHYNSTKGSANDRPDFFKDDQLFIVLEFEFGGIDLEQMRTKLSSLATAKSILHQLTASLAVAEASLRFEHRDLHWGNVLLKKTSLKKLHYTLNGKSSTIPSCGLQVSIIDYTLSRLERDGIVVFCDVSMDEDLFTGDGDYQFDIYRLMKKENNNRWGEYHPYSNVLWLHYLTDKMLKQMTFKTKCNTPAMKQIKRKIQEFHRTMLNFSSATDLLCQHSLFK
The description is as above. As to conditions: ATP 10 µM, means, n = 2, read-out: Residual kinase activity Hs_HASPIN; for remaining activity at 1 µM: compound 1 μM; for remaining activity at 10 µM: compound 10 μM.
Text: as §9, §10

A further experiment concerns the target Hs_CDK5/p25 (Homo sapiens, UniProt Q00535). Described as above. As to conditions: ATP 10 µM, means, n = 2, read-out: Residual kinase activity Hs_CDK5/p25; for remaining activity at 1 µM: compound 1 μM; for remaining activity at 10 µM: compound 10 μM.
Text: as §9, §10

The next experiment deals with Hs_CDK9/CyclinT (Homo sapiens, UniProt P50750). The description is as above. Particulars: ATP 10 µM, means, n = 2, read-out: Residual kinase activity Hs_CDK9/CyclinT; for remaining activity at 1 µM: compound 1 μM; for remaining activity at 10 µM: compound 10 μM.
Text: as §9, §10

In experiment [1] the target is T2, Mm_CLK1 (Mus musculus, UniProt P22518). The description is as above. Particulars: for activity against CLK1 in primary screening: 1 and 10 µM; for remaining activity at 1 µM: compound 1 μM; for remaining activity at 1 µM / remaining activity at 10 µM: ATP 10 µM, means, n = 2, read-out: Residual kinase activity Mm_CLK1; for remaining activity at 10 µM: compound 10 μM.
Text: as §9, §10

In another experiment the target is Hs_GSK3β (Homo sapiens, UniProt P49841). Described as above. Particulars: ATP 10 µM, means, n = 2, read-out: Residual kinase activity Hs_GSK3β; for remaining activity at 1 µM: compound 1 μM; for remaining activity at 10 µM: compound 10 μM.
Text: as §9, §10

A further experiment has as its target Hs_PIM1 (Homo sapiens, UniProt P11309). The description is as above. As to conditions: ATP 10 µM, means, n = 2, read-out: Residual kinase activity Hs_PIM1; for remaining activity at 1 µM: compound 1 μM; for remaining activity at 10 µM: compound 10 μM.
Text: as §9, §10

The target of the next experiment is Hs_CK1ε (Homo sapiens, UniProt P49674). Described as above. As to conditions: ATP 10 µM, means, n = 2, read-out: Residual kinase activity Hs_CK1ε; for remaining activity at 1 µM: compound 1 μM; for remaining activity at 10 µM: compound 10 μM.
Text: as §9, §10

A further experiment addresses Mm_CLK4 (Mus musculus, UniProt O35493). In words: radiometric γ33P-ATP kinase assay (Eurofins). As to conditions: for IC50: 15 µM ATP, dose-response, points in duplicate; for Mm_CLK3/Mm_CLK4: ratio of IC50 values. The protocol: as §1, §2, §3, §4, §5, §6, §7, §8
(§11) R.; Baratte, B.; Robert, T.; Ruchaud, S.; Bach, S.; Jadav, S. S.; Reddy, C. […]

Experiment [2] deals with T2, Mm_CLK1. In words: radiometric γ33P-ATP kinase assay (Eurofins). Particulars: for IC50: 15 µM ATP, dose-response, points in duplicate; for Mm_CLK3/Mm_CLK1: ratio of IC50 values. The protocol:
as §1, §2, §3, §4, §5, §6, §7, §8, §11

The next experiment deals with Mm_CLK2 (Mus musculus, UniProt O35491). In words: radiometric γ33P-ATP kinase assay (Eurofins). As to conditions: for IC50: 15 µM ATP, dose-response, points in duplicate; for Mm_CLK3/Mm_CLK2: ratio of IC50 values. The protocol:
as §1, §2, §3, §4, §5, §6, §7, §8, §11

Hs_CDK9/CyclinT, sequence (P50750 whole entry): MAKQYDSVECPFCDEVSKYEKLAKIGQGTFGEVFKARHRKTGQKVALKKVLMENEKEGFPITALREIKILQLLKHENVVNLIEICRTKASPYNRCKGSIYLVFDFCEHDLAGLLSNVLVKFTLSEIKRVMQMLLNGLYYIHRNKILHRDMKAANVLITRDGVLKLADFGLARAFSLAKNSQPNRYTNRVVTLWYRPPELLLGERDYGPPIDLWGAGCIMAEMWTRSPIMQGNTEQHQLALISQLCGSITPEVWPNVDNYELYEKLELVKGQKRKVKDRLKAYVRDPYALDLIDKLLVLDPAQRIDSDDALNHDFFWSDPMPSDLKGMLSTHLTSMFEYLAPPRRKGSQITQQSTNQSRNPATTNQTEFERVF
Hs_CDK9/CyclinT, sequence (O60563 whole entry partner): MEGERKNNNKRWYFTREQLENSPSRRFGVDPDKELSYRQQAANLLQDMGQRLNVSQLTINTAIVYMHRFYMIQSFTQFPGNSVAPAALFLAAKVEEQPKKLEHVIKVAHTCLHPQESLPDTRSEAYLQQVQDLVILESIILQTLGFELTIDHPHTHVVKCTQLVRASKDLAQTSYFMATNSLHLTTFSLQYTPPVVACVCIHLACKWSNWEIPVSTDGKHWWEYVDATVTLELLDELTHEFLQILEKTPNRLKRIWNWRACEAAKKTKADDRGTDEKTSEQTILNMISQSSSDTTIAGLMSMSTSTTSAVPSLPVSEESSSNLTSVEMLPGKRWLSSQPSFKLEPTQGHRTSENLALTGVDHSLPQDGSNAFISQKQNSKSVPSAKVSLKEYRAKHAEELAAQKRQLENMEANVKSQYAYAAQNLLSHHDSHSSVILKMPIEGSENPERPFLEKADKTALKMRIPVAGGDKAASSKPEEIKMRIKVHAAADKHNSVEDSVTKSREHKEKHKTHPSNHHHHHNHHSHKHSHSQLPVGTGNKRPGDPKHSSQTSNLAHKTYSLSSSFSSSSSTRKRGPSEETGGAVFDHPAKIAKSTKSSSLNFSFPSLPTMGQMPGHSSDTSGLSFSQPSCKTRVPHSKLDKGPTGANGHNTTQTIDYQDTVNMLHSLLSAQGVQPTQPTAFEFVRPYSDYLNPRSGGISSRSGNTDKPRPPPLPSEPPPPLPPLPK
Mm_CLK4, sequence (O35493 whole entry): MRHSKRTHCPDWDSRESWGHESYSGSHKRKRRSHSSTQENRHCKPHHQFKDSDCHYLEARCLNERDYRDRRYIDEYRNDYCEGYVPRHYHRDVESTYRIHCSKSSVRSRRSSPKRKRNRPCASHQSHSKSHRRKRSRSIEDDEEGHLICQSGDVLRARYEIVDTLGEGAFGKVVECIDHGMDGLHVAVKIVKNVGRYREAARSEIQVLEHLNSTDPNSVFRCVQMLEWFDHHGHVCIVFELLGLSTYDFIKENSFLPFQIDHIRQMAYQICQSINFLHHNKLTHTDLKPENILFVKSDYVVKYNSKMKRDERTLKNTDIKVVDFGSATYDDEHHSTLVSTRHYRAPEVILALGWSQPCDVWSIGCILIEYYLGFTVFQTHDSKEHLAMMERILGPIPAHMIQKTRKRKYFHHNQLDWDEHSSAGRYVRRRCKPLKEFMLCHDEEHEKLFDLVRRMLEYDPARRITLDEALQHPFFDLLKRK
Mm_CLK2, sequence (O35491 whole entry): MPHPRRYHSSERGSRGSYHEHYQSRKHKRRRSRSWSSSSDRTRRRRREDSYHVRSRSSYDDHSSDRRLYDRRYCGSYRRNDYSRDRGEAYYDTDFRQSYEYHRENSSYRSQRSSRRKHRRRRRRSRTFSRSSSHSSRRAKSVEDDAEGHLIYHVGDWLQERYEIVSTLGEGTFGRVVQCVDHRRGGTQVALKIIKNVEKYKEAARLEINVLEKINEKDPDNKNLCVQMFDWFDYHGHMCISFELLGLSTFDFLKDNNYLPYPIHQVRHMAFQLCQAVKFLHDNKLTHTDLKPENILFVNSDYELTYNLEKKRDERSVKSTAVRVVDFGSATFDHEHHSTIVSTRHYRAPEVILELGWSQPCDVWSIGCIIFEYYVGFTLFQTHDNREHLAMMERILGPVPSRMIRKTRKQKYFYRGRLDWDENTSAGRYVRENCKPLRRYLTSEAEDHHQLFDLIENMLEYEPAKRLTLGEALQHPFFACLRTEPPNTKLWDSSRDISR
Hs_PIM1, sequence (P11309 whole entry): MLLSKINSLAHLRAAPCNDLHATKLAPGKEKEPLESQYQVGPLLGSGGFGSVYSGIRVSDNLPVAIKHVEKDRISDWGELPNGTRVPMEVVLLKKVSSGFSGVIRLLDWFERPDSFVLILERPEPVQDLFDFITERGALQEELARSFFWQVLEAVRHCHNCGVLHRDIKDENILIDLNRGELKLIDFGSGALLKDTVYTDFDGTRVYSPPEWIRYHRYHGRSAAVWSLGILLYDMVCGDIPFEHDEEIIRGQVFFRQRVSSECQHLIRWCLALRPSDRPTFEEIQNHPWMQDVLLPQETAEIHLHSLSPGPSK
Hs_CDK5/p25, sequence (Q00535 whole entry): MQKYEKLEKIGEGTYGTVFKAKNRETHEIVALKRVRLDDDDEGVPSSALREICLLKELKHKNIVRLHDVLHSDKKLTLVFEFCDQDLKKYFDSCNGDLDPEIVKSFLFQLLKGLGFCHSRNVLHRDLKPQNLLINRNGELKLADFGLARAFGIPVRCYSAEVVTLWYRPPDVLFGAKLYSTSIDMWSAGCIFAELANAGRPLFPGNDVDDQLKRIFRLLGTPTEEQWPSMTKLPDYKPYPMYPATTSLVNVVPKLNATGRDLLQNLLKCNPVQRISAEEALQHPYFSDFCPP
Hs_CDK5/p25, sequence (Q15078 99-307 partner limits assumed): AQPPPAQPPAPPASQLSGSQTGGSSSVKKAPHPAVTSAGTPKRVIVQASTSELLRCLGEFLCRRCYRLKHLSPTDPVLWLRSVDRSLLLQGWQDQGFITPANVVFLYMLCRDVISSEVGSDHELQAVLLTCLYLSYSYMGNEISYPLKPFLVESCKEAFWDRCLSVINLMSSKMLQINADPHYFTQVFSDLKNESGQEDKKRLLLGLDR
Hs_GSK3β, sequence (P49841 whole entry): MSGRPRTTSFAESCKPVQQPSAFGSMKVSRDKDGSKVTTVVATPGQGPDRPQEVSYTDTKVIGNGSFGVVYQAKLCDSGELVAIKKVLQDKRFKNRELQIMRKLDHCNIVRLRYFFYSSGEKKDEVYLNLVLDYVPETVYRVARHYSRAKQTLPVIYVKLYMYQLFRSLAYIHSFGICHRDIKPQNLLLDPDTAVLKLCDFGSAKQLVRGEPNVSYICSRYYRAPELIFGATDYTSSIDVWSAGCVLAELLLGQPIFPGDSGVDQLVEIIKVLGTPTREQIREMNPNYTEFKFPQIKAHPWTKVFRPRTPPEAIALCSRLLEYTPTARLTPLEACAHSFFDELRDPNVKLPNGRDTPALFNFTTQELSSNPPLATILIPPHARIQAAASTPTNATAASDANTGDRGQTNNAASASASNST
Hs_CK1ε, sequence (P49674 whole entry): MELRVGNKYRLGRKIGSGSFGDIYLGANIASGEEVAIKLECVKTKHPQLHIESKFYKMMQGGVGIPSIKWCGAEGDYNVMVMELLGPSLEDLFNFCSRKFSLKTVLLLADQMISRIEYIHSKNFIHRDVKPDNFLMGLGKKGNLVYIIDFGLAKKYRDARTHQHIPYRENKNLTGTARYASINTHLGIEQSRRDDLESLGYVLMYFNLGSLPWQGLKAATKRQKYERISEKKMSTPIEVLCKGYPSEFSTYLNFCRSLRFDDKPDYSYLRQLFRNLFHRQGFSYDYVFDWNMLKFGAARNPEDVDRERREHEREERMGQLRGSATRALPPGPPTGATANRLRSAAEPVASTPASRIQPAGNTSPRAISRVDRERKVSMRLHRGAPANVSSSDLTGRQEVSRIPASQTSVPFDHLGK
T2 sequence (P22518 whole entry): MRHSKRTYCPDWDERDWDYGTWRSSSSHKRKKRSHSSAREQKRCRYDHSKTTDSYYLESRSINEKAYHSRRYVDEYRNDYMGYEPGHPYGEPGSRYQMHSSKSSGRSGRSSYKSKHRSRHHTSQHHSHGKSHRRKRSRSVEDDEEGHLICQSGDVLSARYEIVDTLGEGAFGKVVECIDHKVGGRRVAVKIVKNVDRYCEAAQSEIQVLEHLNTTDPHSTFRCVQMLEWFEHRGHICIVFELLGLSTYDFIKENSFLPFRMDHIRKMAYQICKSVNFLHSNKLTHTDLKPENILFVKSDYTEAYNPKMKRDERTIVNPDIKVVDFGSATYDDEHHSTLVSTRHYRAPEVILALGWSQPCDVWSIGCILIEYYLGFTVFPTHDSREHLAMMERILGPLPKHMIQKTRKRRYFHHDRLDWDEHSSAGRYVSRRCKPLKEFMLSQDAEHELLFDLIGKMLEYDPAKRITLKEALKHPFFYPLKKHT
Mm_CLK3, sequence (O35492 whole entry): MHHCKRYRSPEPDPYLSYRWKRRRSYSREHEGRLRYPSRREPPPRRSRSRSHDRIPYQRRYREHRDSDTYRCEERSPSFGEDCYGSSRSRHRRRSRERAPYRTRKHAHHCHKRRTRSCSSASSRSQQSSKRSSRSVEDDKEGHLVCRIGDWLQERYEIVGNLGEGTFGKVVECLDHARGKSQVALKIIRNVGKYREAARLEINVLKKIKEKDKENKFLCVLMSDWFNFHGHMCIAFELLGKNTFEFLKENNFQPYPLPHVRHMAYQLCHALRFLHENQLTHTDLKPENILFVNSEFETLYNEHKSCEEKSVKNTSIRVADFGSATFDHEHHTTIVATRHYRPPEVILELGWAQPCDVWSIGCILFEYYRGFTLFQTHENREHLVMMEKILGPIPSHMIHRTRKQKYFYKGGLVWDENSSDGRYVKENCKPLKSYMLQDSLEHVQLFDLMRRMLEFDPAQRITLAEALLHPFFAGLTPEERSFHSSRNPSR

As usually defined, the IC50 is the point on the concentration scale where inhibition reaches its midpoint. The low end stands for greater potency in that assay, the high end for weaker potency in that assay. Turning to `Cc1ccc(-n2cc(COc3cccc4cnc(Nc5cccc(-c6cccc(C(=O)O)c6)c5)nc34)nn2)c([N+](=O)[O-])c1` [Compound 13a], the IC50 amounted to 1660 nM against Mm_CLK3, 428 nM against Mm_CLK4, 680 nM against Mm_CLK1 [2] and 278 nM on Mm_CLK2. Moreover, the remaining activity at 1 µM on Rn_DYRK1A is 92%; at Hs_HASPIN it was 79%; at Hs_CDK5/p25 it was 62%; on Hs_CDK9/CyclinT, 83%; at Mm_CLK1 [1], 44%; at Hs_GSK3β, 95%. Further, the remaining activity at 1 µM is 68% at Hs_PIM1 and at least 100% at Hs_CK1ε. In addition, the remaining activity at 10 µM on Rn_DYRK1A was found to be 60%; at Hs_HASPIN it was 63%; at Hs_CDK5/p25, 9%; on Hs_CDK9/CyclinT it was 24%; on Mm_CLK1 [1] it was 5%; at Hs_GSK3β, 26%. Moreover, the remaining activity at 10 µM on Hs_PIM1 and on Hs_CK1ε was at least 100% throughout. The “activity against CLK1 in primary screening” value on Mm_CLK1 [1] is “significant activity against CLK1”. On Mm_CLK4, the Mm_CLK3/Mm_CLK4 is 3.87. On Mm_CLK1 [2], the Mm_CLK3/Mm_CLK1 is on record as 2.43. Besides, the Mm_CLK3/Mm_CLK2 on Mm_CLK2 is given as 5.95.
As for `Cc1ccc(-n2cc(COc3cccc4cnc(Nc5cc(Cl)cc(-c6ccc(C(=O)O)cc6)c5)nc34)nn2)c([N+](=O)[O-])c1` [Compound 10b], the 50% inhibitory concentration (IC50) on Mm_CLK3 was 861 nM; on Mm_CLK4, 145 nM; against Mm_CLK1 [2], 213 nM; at Mm_CLK2, 118 nM. Further, the remaining activity at 1 µM at Rn_DYRK1A amounted to 82%; at Hs_HASPIN, 85%; on Hs_CDK5/p25, 53%; at Hs_CDK9/CyclinT, 99%; at Mm_CLK1 [1] it was 38%; at Hs_GSK3β, 92%. Besides, the remaining activity at 1 µM at Hs_PIM1 was 84%; at Hs_CK1ε, at least 100%. Moreover, the remaining activity at 10 µM turned out to be 94% on Rn_DYRK1A; 92% at Hs_HASPIN; 43% on Hs_CDK5/p25; 66% at Hs_CDK9/CyclinT; 8% at Mm_CLK1 [1]; 56% on Hs_GSK3β. The figures for the remaining activity at 10 µM on Hs_PIM1 and on Hs_CK1ε were at least 100% and 92%, respectively. For the same compound, on Mm_CLK1 [1], the “activity against CLK1 in primary screening” value is on record as “significant activity against CLK1”. Besides, the Mm_CLK3/Mm_CLK4 on Mm_CLK4 is reported as 5.94. The Mm_CLK3/Mm_CLK1 at Mm_CLK1 [2] turned out to be 4.04. For the same compound, the Mm_CLK3/Mm_CLK2 on Mm_CLK2 turned out to be 7.29.
Consider `COC(=O)c1ccc(-c2cc(Cl)cc(Nc3ncc4cccc(OCc5cn(-c6ccc(C)cc6[N+](=O)[O-])nn5)c4n3)c2)cc1` [Compound 9b], for which the remaining activity at 1 µM is at least 100% on Rn_DYRK1A; 65% at Hs_HASPIN; 74% on Hs_CDK5/p25; 96% at Hs_CDK9/CyclinT; 60% on Mm_CLK1 [1]; 90% on Hs_GSK3β. The remaining activity at 1 µM on Hs_PIM1 and on Hs_CK1ε was at least 100% throughout. Besides, the remaining activity at 10 µM is at least 100% on Rn_DYRK1A; 43% at Hs_HASPIN; at least 100% at Hs_CDK5/p25; 91% at Hs_CDK9/CyclinT; 66% at Mm_CLK1 [1]; 86% on Hs_GSK3β. For the same compound, the values for the remaining activity at 10 µM on Hs_PIM1 and on Hs_CK1ε were 96% and at least 100%, respectively.
With `COC(=O)c1cccc(-c2cc(Cl)cc(Nc3ncc4cccc(OCc5cn(-c6ccc(C)cc6[N+](=O)[O-])nn5)c4n3)c2)c1` [Compound 12b], the remaining activity at 1 µM was at least 100% on Rn_DYRK1A; 47% at Hs_HASPIN; 85% on Hs_CDK5/p25; 94% at Hs_CDK9/CyclinT; 54% at Mm_CLK1 [1]; 97% at Hs_GSK3β. Moreover, the values for the remaining activity at 1 µM on Hs_PIM1 and at Hs_CK1ε were 90% and at least 100%, respectively. In addition, the remaining activity at 10 µM was at least 100% on Rn_DYRK1A; 39% on Hs_HASPIN; 92% at Hs_CDK5/p25; 83% on Hs_CDK9/CyclinT; 48% on Mm_CLK1 [1]; 62% on Hs_GSK3β. Also, the values for the remaining activity at 10 µM at Hs_PIM1 and at Hs_CK1ε were 98% and at least 100%, respectively.
As to `COC(=O)c1ccc(-c2cccc(Nc3ncc4cccc(OCc5cn(-c6ccc(C)cc6[N+](=O)[O-])nn5)c4n3)c2)cc1` [Compound 9a], the remaining activity at 1 µM on Rn_DYRK1A is at least 100%; at Hs_HASPIN it was 95%; at Hs_CDK5/p25, 70%; at Hs_CDK9/CyclinT, 98%; at Mm_CLK1 [1], 66%; on Hs_GSK3β, 70%. Further, the remaining activity at 1 µM at Hs_PIM1 was at least 100%; at Hs_CK1ε it was 78%. Besides, the remaining activity at 10 µM on Rn_DYRK1A is at least 100%; at Hs_HASPIN, at least 100%; on Hs_CDK5/p25 it was 84%; at Hs_CDK9/CyclinT, 95%; at Mm_CLK1 [1] it was 58%; on Hs_GSK3β it was 53%. Further, the remaining activity at 10 µM at Hs_PIM1 was found to be 90%; at Hs_CK1ε, 95%.
